Laboratory results taken from patent publication US20050137177A1, “Ester combination local anesthetic” (priority 2003, published 2005).

Key:
sciatic nerve [1] = assay: Rat sciatic nerve block, onset and offset (withdrawal to pinch, proprioception, motor strength); assay type: in vivo; conditions: for duration of sensory block (in words) / onset of sensory block (in words) / duration of full sensory block (until it started to decay): 2% 2-chloroprocaine; for duration of sensory block (in words) / onset of sensory block (in words): 0.22% or 0.5% tetracaine
Protocol: The onset and offset of sciatic nerve block from lidocaine, bupivacaine, tetracaine, and 2-chloroprocaine were examined in studies conducted in rats. Three different modalities were tested: (1) pain (e.g., withdrawal to pinch); (2) proprioception (e.g., the ability to place the paw squarely on the table); and (3) motor strength (e.g., the downward pressure the paw can exert on a scale). In each case, the same volume of local anesthetic agent was tested. The modality of interest was withdrawal to pinch. Each local anesthetic was tested on 5 rats of nearly identical size and age.

rat peroneal nerve = conditions: in vivo; for peroneal total axonal counts (± SEM): 5 days
Text: Sections of rat peroneal nerve were taken for evaluation with light microscopy five days post injection with local anesthetic(s). Specifically, each nerve was sectioned and total axonal counts were taken to assess any axonal loss. Five nerves were examined for each treatment condition. The peroneal axonal counts five days after control (saline), bupivacaine, and 2.3% 2-chloroprocaine/0.17% tetracaine injections were 2063±30 (SEM), 1959±81, and 1993±45, respectively.

sciatic nerve [2] = conditions: rat, in vivo
Text: Sections were also taken across the sciatic nerve five days after injection with local anesthetic(s) and examined for gross pathological injury.

[3] = between 1990 and 1997; Medline database; cited from earlier work
[4] = 0.17% tetracaine + 2.3% 2-chloroprocaine
[5] = 2.0% lidocaine, 0.17% tetracaine + 2.3% 2-chloroprocaine
[6] = withdrawal to pinch, 2.0% lidocaine, 0.5% bupivacaine, 0.17% tetracaine + 2.3% 2-chloroprocaine

CCCCNc1ccc(C(=O)OCCN(C)C)cc1 [tetracaine]
sensory block achieved (sciatic nerve [1]; 0.22% tetracaine): less than 60%
sensory block achieved (sciatic nerve [1]; 0.5% tetracaine): less than 60%
duration of sensory block (in words) (sciatic nerve [1]; [4]): dissipated rapidly
onset of sensory block (in words) (sciatic nerve [1]; [5]): slow onset
motor blockade (sciatic nerve [1]; tetracaine studies, all animals, data not shown): complete, prolonged motor blockade

CCN(CC)CC(=O)Nc1c(C)cccc1C [lidocaine]
onset of sensory block (in words) (sciatic nerve [1]; [5]): nearly immediate
onset of block at the first time point tested (sciatic nerve [1]; 2.0% lidocaine, 2 minutes after injection, sensory block, 5 rats): 100%
duration of full sensory block (until it started to decay) (sciatic nerve [1]; [6]): about 45 minutes
total axonal counts compared with saline controls (in words) (rat peroneal nerve): significantly reduced
peroneal total axonal counts (± SEM) (rat peroneal nerve): 1602±167
light microscopic appearance of sciatic nerve at site of injection (sciatic nerve [2]): marked edema and neural damage

CCN(CC)CCOC(=O)c1ccc(N)cc1Cl [2-chloroprocaine]
duration of sensory block (in words) (sciatic nerve [1]; [4]): substantially shorter without co-administration of tetracaine
onset of sensory block (in words) (sciatic nerve [1]; [5]): slower than with co-administration of tetracaine
duration of full sensory block (until it started to decay) (sciatic nerve [1]; [6]): about 30 minutes

CCCCN1CCCCC1C(=O)Nc1c(C)cccc1C (stereo not drawn) [bupivacaine]
onset of sensory block relative to 2.0% lidocaine (sciatic nerve [1]; 0.5% bupivacaine vs 2.0% lidocaine): 4 times slower
time to achieve full sensory block (onset) (sciatic nerve [1]; withdrawal to pinch, 0.5% bupivacaine, 0.17% tetracaine + 2.3% 2-chloroprocaine, same volume, 5 rats): 8 min
duration of full sensory block (until it started to decay) (sciatic nerve [1]; [6]): 60 min
total axonal counts compared with saline controls (in words) (rat peroneal nerve): no significant difference
peroneal total axonal counts (± SEM) (rat peroneal nerve): 1959±81
light microscopic appearance of sciatic nerve at site of injection (sciatic nerve [2]): indistinguishable from saline controls
deaths (e.g., heart arrest, myocardial infarction, accidental overdose) [3]: 102 deaths
